# Measurements as given in patent US11339405B2, “Kit and method for producing induced embryonic neural progenitors” (priority 2017, dated 2022).
# “Also recorded” adds a separate entry of the source.
# Key:
# AD-iENP-derived neurons = test: pTAU (AT8) ICC in AD-iENP-derived neurons, AD drug testing; assay type: cell-based, human; conditions: AD-iENP-derived neurons (AD1, APOE4/E4), treated for 2 days at 7 days after cortical differentiation; vs DMSO
# Method: General neural differentiation was examined using differentiation media [Neurobasal, B27 supplement, 1% NEAA, 2 mM glutamine, 1 mM sodium pyruvate (Invitrogen), 300 μg/ml dbcAMP, 50 μM ascorbic acid (Sigma), 20 ng/ml BDNF, 20 ng/ml GDNF, 50 ng/ml NGF (Peprotech)], while specific neuronal differentiation were examined using cortical neuronal differentiation media, dopaminergic neuronal differentiation media, and PNS neuronal differentiation media [cortical neuronal differentiation media: Neurobasal, N2 supplement, B27 supplement (Invitrogen), 100 ng/ml SHH, 125 ng/ml Noggin, 250 ng/ml DKK1, 10 ng/ml BDNF, 10 ng/ml bFGF (R&D), 2 μM XAV939, 100 nM LDN93189, 10 μM SB431542, 200 μM ascorbic acid, 200 μM dbcAMP (Sigma); dopaminergic neuronal differentiation media: DMEM/F12, N2 supplement (Invitrogen), 20 ng/ml BDNF, 200 ng/ml SHH, 100 ng/ml FGF8P (R&D), 200 μM ascorbic acid (Sigma); PNS neuronal differentiation media: DMEM/F12, N2 supplement (Invitrogen), 3 μM CHIR99021, 10 μM SU5402, 10 μM DAPT, 200 μM dbcAMP]. For AD drug testing, AD- and control-iENPs were subjected to cortical differentiation. At 7 days after differentiation, cells were treated with SB415286, 1-Azakenpaullone (Selleckchem), or DMSO (Sigma) for 2 days. […]
# The ICC procedure was performed as previously described. […] Signals were recorded using a Zeiss microscope and Spot software. […]
# HD-iENPs = test: γH2AX ICC (DNA damage) in HD-iENPs; assay type: cell-based, human; conditions: vs vehicle (DMSO)
# HD-iENP-derived neurons = test: γH2AX ICC (DNA damage) in HD-iENP-derived neurons; assay type: cell-based, human; conditions: neuronal derivatives of HD-iENPs; vs vehicle (DMSO)
# [1] = test system: TTX-sensitive sodium channels; assay type: cell-based, human
# [2] = test system: FBs infected with virus encoding the 6 or 7TF combinations
compound,measurement,setting,value
"O=C1Cc2c([nH]c3ccc(Br)cc23)-c2ncccc2N1 [1-Aza, 1-Azakenpaullone]",pTAU aggregation / pTAU expression,AD-iENP-derived neurons,significantly reduced
CCNC(=O)[C@H]1O[C@@H](n2cnc3c(N)nc(NCCc4ccc(CCC(=O)O)cc4)nc32)[C@H](O)[C@@H]1O [CGS21680],γH2AX expression (DNA damage),HD-iENPs,significantly decreased; also recorded: decreased DNA damage
same,γH2AX expression (DNA damage),HD-iENP-derived neurons,significantly decreased; also recorded: decreased DNA damage
O=C1NC(=O)C(c2ccccc2[N+](=O)[O-])=C1Nc1ccc(O)c(Cl)c1 [SB415286],pTAU aggregation / pTAU expression,AD-iENP-derived neurons,significantly reduced
"NC1=N[C@H](O)[C@H]2[C@H]3O[C@]4(O)O[C@@H]([C@@H](O)[C@@]2(N1)[C@@H]4O)[C@]3(O)CO [TTX, tetrodotoxin]",inward Na+ currents,[1],could be blocked
same,sodium channel-mediated inward currents,[1],blocked
RepSox,efficiency of iENP-6F generation,[2],significantly improved
